This passage reports Bliss excess results from the supplement of paper PMC11061612.

Holding throughout (test): Bliss excess, mean over the matrix (fraction); higher = more synergy
The test system of test [1] is NCI-H1573 (Lung Adenocarcinoma). The procedure, abridged: (§1)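 After 24 hours at 37°C and 5% CO2 in 1536-well plates, cells in DMEM/F12 or RPMI plus 10% FBS received two-drug dose matrices for 72 hours. Viability came from CellTiter-Glo 2.0 luminescence and was scaled as inhibition, anchored at 0 by vehicle wells and at 1 by blank wells. Combination Emax is taken as the second-highest inhibition in the matrix, and Bliss excess as the observed combination effect less EA + EB − EA·EB, with EA and EB the single-agent effects.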

Another test concerns GI-1 (Glioblastoma). The procedure, abridged:
as §1

Test [2] deals with HC-1 (Other Blood Carcinomas). The procedure, abridged:
as §1

The test system of test [3] is NCI-H513 (Other Solid Carcinomas). Put shortly: as §1
For test [4], the system named is PF-382 (T-Lymphoblastic Leukemia). Put shortly: as §1
In a further test the test system is BT-20 (Breast Carcinoma). Put shortly:
as §1

A further test relates to A704 (Kidney Carcinoma). Put shortly:
as §1

A further test has as its system EW-3 (Ewing's Sarcoma). The procedure, abridged:
as §1

In test [5] the test system is LOU-NH91 (Squamous Cell Lung Carcinoma). The procedure, abridged: as §1
Test [6] concerns NCI-N87 (Gastric Carcinoma). The procedure, abridged:
as §1

The subject of test [7] is KP-2 (Pancreatic Carcinoma). The procedure, abridged:
as §1

Test [8] concerns SNU-C1 (Colorectal Carcinoma). The procedure, abridged: as §1
A further test concerns RPMI-7951 (Melanoma). The procedure, abridged:
as §1

Test [9] relates to LC4-1 (B-Lymphoblastic Leukemia). The procedure, abridged:
as §1

The next test concerns IMR-5 (Neuroblastoma). The procedure, abridged: as §1
Test [10] deals with OCUM-1 (Gastric Carcinoma). The procedure, abridged:
as §1

The subject of test [11] is DG-75 (Burkitt's Lymphoma). The procedure, abridged: as §1
In test [12] the test system is NCI-H2405 (Lung Adenocarcinoma). Put shortly:
as §1

The subject of the next test is U-87-MG (Glioblastoma). The procedure, abridged:
as §1

Test [13] relates to HSC-2 (Oral Cavity Carcinoma). Put shortly: as §1

`Cc1c2c(nn1C)CSCc1cc(n(C)n1)CSc1cc(c3ccccc3c1)OCCCc1c(C(=O)O)n(C)c3c-2c(Cl)ccc13` [AZD5991] + Cc1cc2ncnn2cc1Nc1ncc2c(n1)n(C1CCOCC1)c(=O)n2C [AZD7648] (first compound max 1 µM, 7x7, partner max 10 µM): the Bliss excess in test [1] is 0.0523; with GI-1 (Glioblastoma), 0.0021; in test [2] it was -0.024; in [3] it was -0.0127; in test [4] it was 0.038; in the test on BT-20 (Breast Carcinoma), -0.0139. For the same compound, the Bliss excess in the test on A704 (Kidney Carcinoma) was -0.0914; in the test on EW-3 (Ewing's Sarcoma) it was -0.0626; in [5] it was -0.0307; in test [6], -0.0367; in [7] it was -0.0103; in [8], -0.0742. Also, the Bliss excess with RPMI-7951 (Melanoma) is -0.0317; in [9], 0.0017; with IMR-5 (Neuroblastoma) it was 0.0226; in test [10], -0.0093; in test [11], 0.0116; in test [12], -0.0391. Besides, in the test on U-87-MG (Glioblastoma), the Bliss excess was -0.0311.

As for `Cc1c2c(nn1C)CSCc1cc(n(C)n1)CSc1cc(c3ccccc3c1)OCCCc1c(C(=O)O)n(C)c3c-2c(Cl)ccc13` [AZD5991] + CC1(C)CCC(CN2CCN(c3ccc(C(=O)NS(=O)(=O)c4ccc(NCC5CCOCC5)c([N+](=O)[O-])c4)c(Oc4cnc5[nH]ccc5c4)c3)CC2)=C(c2ccc(Cl)cc2)C1 [Venetoclax] (first compound max 1 µM, 7x7, partner max 1 µM), the Bliss excess in test [1] is -0.036; in the test with GI-1 (Glioblastoma), 0.0476; in [3], -0.0072; in test [4], 0.0223; in the test on BT-20 (Breast Carcinoma), 0.0755; in the test on A704 (Kidney Carcinoma), -0.0306. In addition, the Bliss excess in [13] is 0.0693; in the test with EW-3 (Ewing's Sarcoma), 0.125; in test [5], -0.0589; in test [6], -0.0041; in test [7], 0.0157; in test [8] it was -0.0458. Moreover, the Bliss excess in the test with RPMI-7951 (Melanoma) is -0.0568; in test [9] it was 0.0705; with IMR-5 (Neuroblastoma) it was 0.0656; in test [10], -0.0182; in test [11], -0.0246; in test [12], -0.0346. Further, the Bliss excess in the test on U-87-MG (Glioblastoma) is -0.0877.

As for `C[C@@H](c1ccc2nccn2c1)n1nnc2ncc(-c3cnn(C)c3)nc21` [Savolitinib] + CN(CC[C@H](CSC1=CC=CC=C1)NC2=C(C=C(C=C2)S(=O)(=O)NC(=O)C3=CC=C(C=C3)N4CCC(CC4)[C@H](C5=CC=CC=C5C6=CC=C(C=C6)Cl)O)S(=O)(=O)C(F)(F)F)CCO [AZD4320] (first compound max 1 µM, 7x7, partner max 1 µM), the Bliss excess in test [1] is -0.0473; in test [2], -0.0254; in test [3], -0.0473; in test [4], -0.0665; in the test on BT-20 (Breast Carcinoma), -0.0084; in the test on A704 (Kidney Carcinoma), -0.0766. Further, the Bliss excess was -0.0642 in [5]; -0.0136 in test [7]; -0.0203 with RPMI-7951 (Melanoma); -0.0399 in the test on IMR-5 (Neuroblastoma); -0.0338 in test [11]; -0.0553 in test [12]. For the same compound, in the test with U-87-MG (Glioblastoma), the Bliss excess is -0.143.

Consider `Cc1c2c(nn1C)CSCc1cc(n(C)n1)CSc1cc(c3ccccc3c1)OCCCc1c(C(=O)O)n(C)c3c-2c(Cl)ccc13` [AZD5991] + C=CCn1c(=O)c2cnc(Nc3ccc(N4CCN(C)CC4)cc3)nc2n1-c1cccc(C(C)(C)O)n1 [AZD1775] (first compound max 1 µM, partner max 1 µM), for which the Bliss excess in test [1] was -0.0248; with GI-1 (Glioblastoma) it was -0.0109; in test [2], 0.0432; in [3], -0.003; in test [4], -0.0314; in the test on BT-20 (Breast Carcinoma), -0.02. In addition, the Bliss excess is -0.0506 in the test on A704 (Kidney Carcinoma); -0.0132 in test [13]; 0.017 in the test on EW-3 (Ewing's Sarcoma); 0.0376 in test [5]; -0.0275 in test [6]; 0.0069 in [7]. Also, the Bliss excess in [8] is -0.0839; in test [9] it was 0.0301; in the test with IMR-5 (Neuroblastoma), 0.0063; in [10], -0.0148; in test [11], -0.0098; in [12] it was 0.0385. The Bliss excess with U-87-MG (Glioblastoma) came to 0.0392.

Consider `CC(=O)c1c(C)c2cnc(Nc3ccc(N4CCNCC4)cn3)nc2n(C2CCCC2)c1=O` [Palbociclib] + CN(CC[C@H](CSC1=CC=CC=C1)NC2=C(C=C(C=C2)S(=O)(=O)NC(=O)C3=CC=C(C=C3)N4CCC(CC4)[C@H](C5=CC=CC=C5C6=CC=C(C=C6)Cl)O)S(=O)(=O)C(F)(F)F)CCO [AZD4320] (first compound max 10 µM, 7x7, partner max 1 µM), for which the Bliss excess was -0.109 in test [1]; 0.0001 in test [2]; -0.0718 in test [3]; -0.0062 in [4]; -0.01 with BT-20 (Breast Carcinoma); -0.0376 in the test with A704 (Kidney Carcinoma). Also, the Bliss excess in test [5] is -0.0157; in [7], -0.0731; in the test with RPMI-7951 (Melanoma) it was 0.0312; in the test with IMR-5 (Neuroblastoma) it was 0.0866; in test [11] it was -0.0373; in test [12] it was -0.0614. In addition, in the test with U-87-MG (Glioblastoma), the Bliss excess is -0.0528.

With `Cc1cc2ncnn2cc1Nc1ncc2c(n1)n(C1CCOCC1)c(=O)n2C` [AZD7648] + CCN(CCO)CCCOc1ccc2c(Nc3cc(CC(=O)Nc4cccc(F)c4)[nH]n3)ncnc2c1 [AZD2811] (first compound max 10 µM, 7x7, partner max 1 µM), the Bliss excess in test [1] is 0.0382; with GI-1 (Glioblastoma), 0.043; in test [2], 0.0045; in test [3], -0.021; in [4], 0.0137; in the test on BT-20 (Breast Carcinoma), -0.0432. Also, the Bliss excess in the test with A704 (Kidney Carcinoma) is -0.0368; in test [13], 0.0999; in the test with EW-3 (Ewing's Sarcoma) it was -0.0156; in [5], 0.0693; in test [6], 0.0081; in test [7], -0.0206. Moreover, the Bliss excess was -0.0184 in [8]; 0.0312 in the test with RPMI-7951 (Melanoma); -0.114 in test [9]; -0.0188 in the test with IMR-5 (Neuroblastoma); -0.0093 in test [10]; 0.0393 in test [11]. Moreover, in test [12], the Bliss excess was -0.015.

`CN(C)CCCOc1ccc(-c2ccc3ncc4c(c3c2)n(C2CCOCC2)c(=O)n4C)cn1` [AZD0156] + C[C@@H]1COCCN1C2=NC(=NC(=C2)C3(CC3)[S@](=N)(=O)C)C4=C5C=CNC5=NC=C4 [AZD6738] (first compound max 1 µM, 7x7, partner max 10 µM): the Bliss excess in test [1] is -0.0098; in the test with GI-1 (Glioblastoma) it was -0.0234; in test [2], -0.0214; in [3] it was 0.0235; in test [4] it was 0.0357; in the test on BT-20 (Breast Carcinoma) it was 0.0152. The Bliss excess in the test with A704 (Kidney Carcinoma) was -0.0067; in test [13], 0.0867; in the test on EW-3 (Ewing's Sarcoma) it was -0.0721; in test [5], -0.0001; in test [6] it was -0.0286; in test [7], 0.0173. Further, the Bliss excess is 0.0001 in test [8]; 0.0468 with RPMI-7951 (Melanoma); -0.0743 in [9]; -0.0432 with IMR-5 (Neuroblastoma); 0.0437 in test [10]; 0.0645 in test [11]. Besides, the Bliss excess in test [12] was -0.0027.
